US20220010258A1, “DEVICE THAT CAN SERVE AS A HEMATO-ENCEPHALITIC BARRIER MODEL” (priority 2017, published 2022)

Assays:
[1] = known ability; cited from earlier work
P-gp glycoprotein = experiment: Functionality of P-glycoprotein in the commercially available device (Rhodamine 123 with or without Zosuquidar); assay type: in vitro ADME, rat; conditions: commercially available model
Experimental: Here again, the functionality of the commercially available model was evaluated by studying the passage of Rhodamine 123 in the presence or absence of the specific inhibitor of the P-gp glycoprotein, Zosuquidar.

P-gp efflux pump = experiment: Functionality of P-glycoprotein on murine devices with immortalised cell lines
P-glycoprotein = experiment: Functionality of the P-glycoprotein: passage of rhodamine 123 with or without Zosuquidar, primary murine devices; assay type: in vitro ADME, mouse
Experimental: This functionality test is carried out with rhodamine 123, because it is known that this molecule as a substrate for the P-glycoprotein is expelled by the P-glycoprotein into the luminal compartment, which thus limits its passage through the device. The culture media are replenished: 1 mL in the abluminal compartment and 250 μL in the luminal compartment either containing or not containing the Zosuquidar inhibitor of P-glycoprotein P at 5 μM (Dantzig et al. 1996). The devices are incubated for 2 hrs in the incubator. Then, 250 μL of medium containing 2 μM rhodamine 123 with or without 5 μM Zosuquidar are added into the luminal compartment and incubated for 1 hr in the incubator. […] The reading of the fluorescence intensity is done on the same apparatus as for the permeability test (described above). The λex of the rhodamine is 500 nm and the λem is 524 nm.
Indeed it is known that rhodamine 123 as a substrate for glycoprotein P is expelled by the glycoprotein P into the luminal compartment, which limits the passage thereof through the device. Zosuquidar is an inhibitor of P-glycoprotein, therefore its use should limit the efflux of rhodamine 123 into the luminal compartment.
As in Example 4, the passage of rhodamine 123 in the presence or absence of Zosuquidar was studied.

Compound: O=C1CN=C(c2ccccn2)c2cc(Br)ccc2N1 [BROMO, Bromazepam]
- Passage through the HEB [1]: +

Compound: NCCc1ccc(O)c(O)c1 [DA, Dopamine]
- Passage through the HEB [1]: −

Compound: Clc1ccc(C(c2ccccc2Cl)C(Cl)Cl)cc1 (centres unmarked) [MITO, Mitotane]
- Passage through the HEB [1]: −

Compound: OC[C@H]1O[C@@](CO)(O[C@H]2O[C@H](CO)[C@@H](O)[C@H](O)[C@H]2O)[C@@H](O)[C@@H]1O [SUC, Sucrose]
- Passage through the HEB [1]: +

Compound: O[C@@H](COc1cccc2ncccc12)CN1CCN([C@@H]2c3ccccc3[C@@H]3[C@H](c4ccccc42)C3(F)F)CC1 [Zosuquidar]
- effect of Zosuquidar on Rhodamine 123 passage (P-gp glycoprotein): no effect
- Passage through the HEB [1]: −
- effect of the specific Glycoprotein P inhibitor (P-gp efflux pump; all the formats): does not show any effect
- inhibition of the efflux (of rhodamine 123) by the specific P-glycoprotein inhibitor (P-glycoprotein; 5 μM Zosuquidar, device WT): 57.3%
- effect on P-gp functionality (P-glycoprotein; 24- and 96-well format devices): inhibited

Compound: rhodamine 123
- efflux of Rhodamine123 (P-gp glycoprotein; regardless of the side where it is deposited): 97%
- limitation of the passage of Rhodamine 123 on the abluminal side (P-gp efflux pump; 12-, 24-, and 96 well plate formats): more than 60%
- passage of Rhodamine123 to the luminal side after addition into the abluminal compartment (P-glycoprotein; 24- and 96-well format devices): comparable to cell-free HEBs
- passage of Rhodamine123 to the abluminal side (P-glycoprotein; 24- and 96-well format devices, added luminal): passes very little on to the abluminal side
- decrease of the passage of rhodamine 123 to the abluminal compartment as compared to the device without cells (P-glycoprotein; device WT, 1 hr incubation): 72.6%
